{"source": "ChEMBL document CHEMBL1201862", "about": "“PubChem BioAssay data set” (2004)", "key": {"[1]": {"biological_target": "Solute carrier family 12 member 2/member 5 (Homo sapiens, UniProt P55011+Q9H2X9)", "experiment": "KCC2 and NKCC1 inhibition by rubidium flux, cell-based, NKCC1 counter-screen (AID 1734)", "type": "functional, HEK293"}, "NADPH oxidase 1 [2]": {"biological_target": "T1, NADPH oxidase 1 (Homo sapiens, UniProt Q9Y5S8)", "T1 sequence (Q9Y5S8 whole entry)": "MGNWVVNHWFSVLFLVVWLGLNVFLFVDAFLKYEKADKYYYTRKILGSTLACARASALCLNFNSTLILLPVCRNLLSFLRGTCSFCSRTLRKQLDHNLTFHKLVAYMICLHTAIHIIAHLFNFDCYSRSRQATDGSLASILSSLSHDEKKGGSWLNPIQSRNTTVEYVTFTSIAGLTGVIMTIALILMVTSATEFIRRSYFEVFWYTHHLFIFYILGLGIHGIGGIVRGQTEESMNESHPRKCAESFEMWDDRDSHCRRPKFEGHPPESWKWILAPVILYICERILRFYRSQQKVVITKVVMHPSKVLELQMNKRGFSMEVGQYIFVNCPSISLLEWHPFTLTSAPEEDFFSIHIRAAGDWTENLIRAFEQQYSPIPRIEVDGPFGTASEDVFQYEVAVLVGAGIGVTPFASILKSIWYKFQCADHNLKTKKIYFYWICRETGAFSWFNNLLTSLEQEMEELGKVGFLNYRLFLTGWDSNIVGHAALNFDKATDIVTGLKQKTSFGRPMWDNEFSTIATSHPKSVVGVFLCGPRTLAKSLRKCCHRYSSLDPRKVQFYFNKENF", "type": "functional, cell-based"}, "[3]": {"experiment": "blockers of HIV-1 envelope-mediated cell-cell fusion – cherry-pick, dose response (AID 652057)", "type": "functional, cell-based"}, "[4]": {"experiment": "inhibition of Env-driven cell fusion – HIV entry, plate reader, dry powder, dose response (AID 687023)", "type": "functional, cell-based"}, "[5]": {"experiment": "HPDE-C7 pancreatic duct cell viability loss – fluorescence, HTS (AID 430)", "type": "functional, cell-based", "conditions": "Homo sapiens"}, "[6]": {"experiment": "blockers of HIV-1 ZM109 envelope-driven cell-cell fusion – HeLa effector, CEM target cells, luciferase, cherry-pick, dose response (AID 652058)", "type": "functional, cell-based"}, "[7]": {"biological_target": "T2, Sphingosine 1-phosphate receptor 2 (Homo sapiens, UniProt O95136)", "T2 sequence (O95136 whole entry)": "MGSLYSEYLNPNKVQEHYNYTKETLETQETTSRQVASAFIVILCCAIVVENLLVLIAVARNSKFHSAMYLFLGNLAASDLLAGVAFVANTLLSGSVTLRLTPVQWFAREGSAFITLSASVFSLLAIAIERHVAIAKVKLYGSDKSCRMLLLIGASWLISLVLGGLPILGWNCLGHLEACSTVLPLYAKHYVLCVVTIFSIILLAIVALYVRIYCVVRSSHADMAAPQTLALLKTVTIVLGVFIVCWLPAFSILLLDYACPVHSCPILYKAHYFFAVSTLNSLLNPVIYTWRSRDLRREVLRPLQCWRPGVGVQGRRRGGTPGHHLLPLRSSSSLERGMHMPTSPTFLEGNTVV", "experiment": "Dose Response Cell Based Assay for Antagonists of the S1P2 Receptor. [Related pubchem assays: 856, 736 ]", "type": "functional"}, "[8]": {"biological_target": "T3, COUP transcription factor 2 (Homo sapiens, UniProt P24468)", "T3 sequence (P24468 whole entry)": "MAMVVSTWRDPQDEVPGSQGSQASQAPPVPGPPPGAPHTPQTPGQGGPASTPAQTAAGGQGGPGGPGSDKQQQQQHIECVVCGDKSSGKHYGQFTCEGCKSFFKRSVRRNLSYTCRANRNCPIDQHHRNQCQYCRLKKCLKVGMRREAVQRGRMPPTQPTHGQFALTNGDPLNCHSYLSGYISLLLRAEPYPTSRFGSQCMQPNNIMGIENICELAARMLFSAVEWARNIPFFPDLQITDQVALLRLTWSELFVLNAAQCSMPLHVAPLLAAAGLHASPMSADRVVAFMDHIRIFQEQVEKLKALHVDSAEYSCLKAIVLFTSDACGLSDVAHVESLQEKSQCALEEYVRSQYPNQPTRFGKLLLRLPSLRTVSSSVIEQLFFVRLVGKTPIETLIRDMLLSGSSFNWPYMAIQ", "experiment": "Luminescence-based cell-based high throughput dose response assay to identify inhibitors of COUP-TFII (NR2F2).", "type": "functional"}, "INS1": {"system": "INS1", "experiment": "INS-1E survival protection against cytokine death – cell-based, luminescence, retest, dose response (AID 449756);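 also: cell death triggered by IL-1 beta plus TNF-alpha plus IFN-gamma mixture; protective hits raise ATP signal compared with cytokine alone wells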", "type": "functional", "conditions": "Rattus norvegicus"}, "[9]": {"experiment": "viability loss in CEM21 cells – cell-based, plate reader, dry powder, cytotoxicity control, dose response (AID 687026)", "type": "functional"}, "[10]": {"experiment": "HIV-1 AD8 envelope cell-cell fusion blockers – cherry-pick, dose response (AID 652062);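 also: luciferase signal from cell-cell fusion driven by HIV-1 clade B AD8 Env; potency is for inhibitors of fusion seen as a drop in luminescence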", "type": "functional, cell-based"}, "[11]": {"experiment": "viability loss in CEM21 cells – cell-based, CellTiter-Glo luminescence, cherry-picked, cytotoxicity control for viral fusion inhibitor project, dose response (AID 652042);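 also: potency for signal decrease meaning cytotoxicity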", "type": "functional"}, "[12]": {"experiment": "viability loss of HPDE-C7K cells – cell-based, fluorescence, HTS, primary screen (AID 431)", "type": "functional", "conditions": "Homo sapiens"}, "[13]": {"biological_target": "T4, Rac GTPase-activating protein 1 (Homo sapiens, UniProt Q9H0H5)", "T4 sequence (Q9H0H5 whole entry)": "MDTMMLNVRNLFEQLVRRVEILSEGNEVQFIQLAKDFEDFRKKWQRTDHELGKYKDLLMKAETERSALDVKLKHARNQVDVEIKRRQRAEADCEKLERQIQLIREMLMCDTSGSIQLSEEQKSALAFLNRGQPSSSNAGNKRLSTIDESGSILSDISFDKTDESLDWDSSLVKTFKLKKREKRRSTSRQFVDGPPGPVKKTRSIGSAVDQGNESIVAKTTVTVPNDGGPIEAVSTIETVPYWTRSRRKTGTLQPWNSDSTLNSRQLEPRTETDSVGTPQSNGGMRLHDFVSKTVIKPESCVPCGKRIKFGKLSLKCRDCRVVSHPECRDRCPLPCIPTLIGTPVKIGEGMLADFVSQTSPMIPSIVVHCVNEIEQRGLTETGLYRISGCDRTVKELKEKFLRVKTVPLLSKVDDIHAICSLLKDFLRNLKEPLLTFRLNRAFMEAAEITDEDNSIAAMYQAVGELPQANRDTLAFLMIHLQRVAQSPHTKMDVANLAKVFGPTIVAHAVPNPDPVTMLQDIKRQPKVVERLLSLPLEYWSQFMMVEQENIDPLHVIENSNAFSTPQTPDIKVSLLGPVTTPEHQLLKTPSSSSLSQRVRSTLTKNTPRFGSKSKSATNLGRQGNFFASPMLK", "experiment": "blockers of MgcRacGAP-driven Rac1 GTP hydrolysis – biochemical, ADP Hunter fluorescence, primary and confirmatory, confirmation (AID 624330)", "type": "functional"}, "[14]": {"biological_target": "T5, Neuropeptide Y receptor type 2 (Homo sapiens, UniProt P49146)", "T5 sequence (P49146 whole entry)": "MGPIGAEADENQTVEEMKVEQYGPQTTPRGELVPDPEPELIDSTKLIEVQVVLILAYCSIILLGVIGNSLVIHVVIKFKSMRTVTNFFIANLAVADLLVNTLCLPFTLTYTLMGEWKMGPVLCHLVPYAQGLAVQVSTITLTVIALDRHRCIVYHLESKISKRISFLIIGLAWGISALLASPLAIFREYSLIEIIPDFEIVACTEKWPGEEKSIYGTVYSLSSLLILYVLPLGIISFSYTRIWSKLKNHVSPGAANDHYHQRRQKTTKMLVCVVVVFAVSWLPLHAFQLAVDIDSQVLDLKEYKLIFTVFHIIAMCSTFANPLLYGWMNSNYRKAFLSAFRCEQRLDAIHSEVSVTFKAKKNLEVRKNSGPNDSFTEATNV", "experiment": "IC50 for human NPY-Y2 blockade – cell-based, counter-screen for NPY-Y1 antagonist project, dose response (AID 1278)", "type": "functional"}, "[15]": {"biological_target": "T2, Sphingosine 1-phosphate receptor 2", "experiment": "Dose Response Cell-Based Assay for Agonists of the Sphingosine 1-Phosphate Receptor 2 (S1P2): Purchased Analogues. [Related pubchem assays: 1192, 373, 439 ]", "type": "functional"}, "[16]": {"biological_target": "Sphingosine 1-phosphate receptor 1 (Homo sapiens, UniProt P21453)", "sequence (P21453 whole entry)": "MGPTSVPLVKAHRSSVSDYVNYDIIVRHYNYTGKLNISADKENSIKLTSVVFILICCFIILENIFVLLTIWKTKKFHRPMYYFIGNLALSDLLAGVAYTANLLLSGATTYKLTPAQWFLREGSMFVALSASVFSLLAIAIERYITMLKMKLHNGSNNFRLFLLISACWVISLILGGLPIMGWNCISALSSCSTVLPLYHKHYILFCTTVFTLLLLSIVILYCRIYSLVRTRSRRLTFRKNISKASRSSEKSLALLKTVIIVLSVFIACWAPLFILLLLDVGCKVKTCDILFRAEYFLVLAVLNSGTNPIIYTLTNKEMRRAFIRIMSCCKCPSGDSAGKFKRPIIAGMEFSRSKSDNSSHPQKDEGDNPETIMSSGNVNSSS", "experiment": "Dose Response Cell-Based Assay for Agonists of the Sphingosine 1-Phosphate Receptor 1 (S1P1): Purchased Analogues. [Related pubchem assays: 1192, 373, 439 ]", "type": "functional"}, "[17]": {"biological_target": "Sphingosine 1-phosphate receptor 3 (Homo sapiens, UniProt Q99500)", "sequence (Q99500 whole entry)": "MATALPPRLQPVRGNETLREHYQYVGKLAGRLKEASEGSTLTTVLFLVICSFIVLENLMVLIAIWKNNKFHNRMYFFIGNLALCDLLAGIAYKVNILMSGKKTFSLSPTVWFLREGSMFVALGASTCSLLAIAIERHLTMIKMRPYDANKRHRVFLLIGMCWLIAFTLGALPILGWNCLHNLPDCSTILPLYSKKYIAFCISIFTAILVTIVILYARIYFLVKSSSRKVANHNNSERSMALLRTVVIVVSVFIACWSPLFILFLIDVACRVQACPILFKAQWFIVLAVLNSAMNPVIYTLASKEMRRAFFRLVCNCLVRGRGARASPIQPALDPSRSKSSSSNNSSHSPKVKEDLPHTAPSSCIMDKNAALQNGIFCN", "experiment": "Dose Response Cell-Based Assay for Agonists of the Sphingosine 1-Phosphate Receptor 3 (S1P3): Purchased Analogues. [Related pubchem assays: 373, 439 ]", "type": "functional"}, "[18]": {"experiment": "IC50 of Artemis nuclease activity blockers – biochemical, fluorescence intensity, dose response (AID 720701);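 also: Artemis endonuclease enzyme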", "type": "functional"}, "[19]": {"biological_target": "Serine/threonine-protein phosphatase (Homo sapiens, UniProt Q9BPW0)", "sequence (Q9BPW0 whole entry)": "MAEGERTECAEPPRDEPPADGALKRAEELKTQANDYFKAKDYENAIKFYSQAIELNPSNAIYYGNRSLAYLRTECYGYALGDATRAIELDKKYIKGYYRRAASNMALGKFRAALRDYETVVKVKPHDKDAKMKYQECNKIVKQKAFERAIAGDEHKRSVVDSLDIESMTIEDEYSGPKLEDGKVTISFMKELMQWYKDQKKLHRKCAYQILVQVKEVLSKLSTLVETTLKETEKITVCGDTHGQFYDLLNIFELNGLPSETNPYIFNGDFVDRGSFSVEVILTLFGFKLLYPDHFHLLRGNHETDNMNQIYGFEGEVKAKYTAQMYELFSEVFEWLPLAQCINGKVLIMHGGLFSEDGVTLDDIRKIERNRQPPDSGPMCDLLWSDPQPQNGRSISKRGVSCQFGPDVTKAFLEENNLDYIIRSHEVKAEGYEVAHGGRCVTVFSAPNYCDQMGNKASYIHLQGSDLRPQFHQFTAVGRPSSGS", "experiment": "inhibition of protein phosphatase 5 activity – biochemical, fluorescence, dose response (AID 2395)"}, "[20]": {"biological_target": "Serine/threonine-protein phosphatase PP1-alpha catalytic subunit (Homo sapiens, UniProt P62136)", "sequence (P62136 whole entry)": "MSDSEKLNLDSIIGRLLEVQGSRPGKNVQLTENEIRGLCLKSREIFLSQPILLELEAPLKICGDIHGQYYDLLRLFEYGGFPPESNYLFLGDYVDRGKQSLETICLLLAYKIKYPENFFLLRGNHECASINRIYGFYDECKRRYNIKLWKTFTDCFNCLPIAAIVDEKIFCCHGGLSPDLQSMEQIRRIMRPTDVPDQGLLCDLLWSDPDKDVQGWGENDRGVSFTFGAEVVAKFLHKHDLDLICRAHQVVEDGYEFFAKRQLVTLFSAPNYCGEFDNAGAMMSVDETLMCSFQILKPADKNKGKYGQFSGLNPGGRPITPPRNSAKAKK", "experiment": "inhibition of protein phosphatase 1 activity – biochemical, fluorescence, dose response (AID 2394)"}, "[21]": {"biological_target": "Voltage-gated inwardly rectifying potassium channel KCNH2 (Homo sapiens, UniProt Q12809)", "experiment": "concentration-dependent hERG rescue from blockers – cell-based, thallium flux, dose response (AID 2121)", "type": "ADME"}, "Cytochrome P450 2D6": {"biological_target": "Cytochrome P450 2D6 (Homo sapiens, UniProt P10635)", "sequence (P10635 whole entry)": "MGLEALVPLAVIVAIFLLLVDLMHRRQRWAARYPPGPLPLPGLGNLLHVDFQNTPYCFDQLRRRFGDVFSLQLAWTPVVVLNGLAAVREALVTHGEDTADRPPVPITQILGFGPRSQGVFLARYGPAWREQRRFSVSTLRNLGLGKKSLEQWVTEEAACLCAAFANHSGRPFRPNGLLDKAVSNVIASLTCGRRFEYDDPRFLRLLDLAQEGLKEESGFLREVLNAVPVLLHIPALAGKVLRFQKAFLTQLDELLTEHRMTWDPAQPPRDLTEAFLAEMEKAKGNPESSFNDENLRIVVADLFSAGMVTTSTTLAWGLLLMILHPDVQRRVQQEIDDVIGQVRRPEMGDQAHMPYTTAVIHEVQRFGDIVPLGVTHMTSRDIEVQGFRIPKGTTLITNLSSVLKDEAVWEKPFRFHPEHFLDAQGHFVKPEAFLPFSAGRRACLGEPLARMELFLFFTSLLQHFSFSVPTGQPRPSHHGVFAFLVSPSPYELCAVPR"}, "[22]": {"biological_target": "Aryl hydrocarbon receptor (Homo sapiens, UniProt P35869)", "sequence (P35869 whole entry)": "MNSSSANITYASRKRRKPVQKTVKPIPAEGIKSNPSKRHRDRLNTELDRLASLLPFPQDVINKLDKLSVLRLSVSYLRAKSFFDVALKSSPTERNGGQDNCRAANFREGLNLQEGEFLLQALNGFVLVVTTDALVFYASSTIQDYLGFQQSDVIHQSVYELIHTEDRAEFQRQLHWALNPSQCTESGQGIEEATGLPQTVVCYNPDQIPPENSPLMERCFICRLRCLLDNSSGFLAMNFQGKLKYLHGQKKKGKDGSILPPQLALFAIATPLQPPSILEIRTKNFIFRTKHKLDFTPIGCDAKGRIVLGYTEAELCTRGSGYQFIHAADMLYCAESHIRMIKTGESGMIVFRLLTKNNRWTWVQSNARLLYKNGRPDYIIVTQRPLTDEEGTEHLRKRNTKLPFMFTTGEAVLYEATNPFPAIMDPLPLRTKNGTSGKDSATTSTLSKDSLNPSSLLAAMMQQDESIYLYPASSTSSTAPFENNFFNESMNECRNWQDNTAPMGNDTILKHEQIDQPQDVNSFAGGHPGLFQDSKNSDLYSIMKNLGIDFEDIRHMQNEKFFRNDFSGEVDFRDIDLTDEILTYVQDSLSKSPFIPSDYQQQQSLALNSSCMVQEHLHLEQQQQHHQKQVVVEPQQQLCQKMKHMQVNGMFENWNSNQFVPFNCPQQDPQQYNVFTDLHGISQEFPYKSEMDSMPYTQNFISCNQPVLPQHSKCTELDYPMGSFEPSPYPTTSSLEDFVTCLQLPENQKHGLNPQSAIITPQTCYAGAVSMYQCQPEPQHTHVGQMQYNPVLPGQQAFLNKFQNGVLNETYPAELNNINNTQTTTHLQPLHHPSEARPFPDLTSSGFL", "experiment": "Luminescence-based cell-based high throughput dose response assay for activators of the Aryl Hydrocarbon Receptor (AHR). [Related pubchem assays: 2796 (Primary screen (AHR activators in singlicate)), 2845 (Confirmation screen (AHR activators in triplicate)), 434939 (Counterscreen (PXR activators in triplicate)), 2804 (Summary (AHR activators))]", "type": "ADME"}, "Cytochrome P450 3A4": {"biological_target": "Cytochrome P450 3A4 (Homo sapiens, UniProt P08684)", "sequence (P08684 whole entry)": "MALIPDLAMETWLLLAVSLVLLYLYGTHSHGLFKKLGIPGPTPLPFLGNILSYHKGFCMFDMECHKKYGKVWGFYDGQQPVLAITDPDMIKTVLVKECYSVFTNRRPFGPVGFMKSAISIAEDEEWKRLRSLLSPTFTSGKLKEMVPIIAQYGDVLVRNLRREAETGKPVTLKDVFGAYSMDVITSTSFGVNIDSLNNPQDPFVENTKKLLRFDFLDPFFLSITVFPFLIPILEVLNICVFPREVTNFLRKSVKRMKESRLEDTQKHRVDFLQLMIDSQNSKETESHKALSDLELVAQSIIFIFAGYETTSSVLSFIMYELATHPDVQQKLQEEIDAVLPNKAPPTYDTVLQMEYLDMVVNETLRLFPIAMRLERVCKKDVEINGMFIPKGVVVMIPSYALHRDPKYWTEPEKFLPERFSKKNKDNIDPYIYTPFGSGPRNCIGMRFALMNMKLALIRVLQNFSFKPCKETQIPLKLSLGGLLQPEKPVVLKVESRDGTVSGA"}, "NADPH oxidase 1 [23]": {"biological_target": "T1, NADPH oxidase 1", "experiment": "Late-stage luminescence-based cell-based dose response assay to identify inhibitors of NADPH oxidase 1 (NOX1): Purchased analogs 2.", "type": "functional"}, "[24]": {"biological_target": "5-hydroxytryptamine receptor 1A (Homo sapiens, UniProt P08908)", "sequence (P08908 whole entry)": "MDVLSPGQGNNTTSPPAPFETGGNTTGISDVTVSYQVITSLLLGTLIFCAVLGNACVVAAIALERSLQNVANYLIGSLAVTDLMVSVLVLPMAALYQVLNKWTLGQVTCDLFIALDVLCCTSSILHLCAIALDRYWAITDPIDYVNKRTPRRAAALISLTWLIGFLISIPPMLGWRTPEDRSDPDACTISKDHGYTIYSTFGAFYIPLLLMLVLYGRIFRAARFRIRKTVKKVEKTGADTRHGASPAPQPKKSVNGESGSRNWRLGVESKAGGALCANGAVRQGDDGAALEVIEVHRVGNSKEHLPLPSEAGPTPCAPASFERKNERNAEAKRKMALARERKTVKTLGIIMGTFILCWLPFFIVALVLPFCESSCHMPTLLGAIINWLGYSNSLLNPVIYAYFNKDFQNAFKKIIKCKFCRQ", "type": "functional"}}, "note": "Where “and” joins values, the source holds several entries; their conditions need not be identical. Equal values may be shown once. Calls of active or inactive are those of the source."}
{"smiles": "Cc1cnc(NC(=O)CSc2nnc(Cc3ccccc3)o2)s1", "values": [{"measurement": "IC50", "setting": "[1]", "result": "19.7 µM (active)"}]}
{"smiles": "O=C(Oc1cccc([N+](=O)[O-])c1)c1sc2ccccc2c1Cl", "values": [{"measurement": "IC50", "setting": "NADPH oxidase 1 [2]", "result": "> 17 µM (not active)"}]}
{"smiles": "COc1ccc2c(c1)[nH]c1c(N3CCN(Cc4ccc5c(c4)OCO5)CC3)ncnc12", "values": [{"measurement": "AC50", "setting": "[3]", "result": "3.89 µM (active)"}, {"measurement": "AC50", "setting": "[4]", "result": "2.72 µM (active) and 5.39 µM (active)"}, {"measurement": "EC50", "setting": "[5]", "result": "16.7 µM (active)"}, {"measurement": "AC50", "setting": "[6]", "result": "6.42 µM (active)"}, {"measurement": "IC50", "setting": "[7]", "result": "4.01 µM (active)"}, {"measurement": "IC50", "setting": "[8]", "result": "6.68 µM (active)"}, {"measurement": "AC50", "setting": "INS1", "result": "2.06 µM (active)"}, {"measurement": "AC50", "setting": "[9]", "result": "35.8 µM (active) and 32.4 µM (active)"}, {"measurement": "AC50", "setting": "[10]", "result": "4.68 µM (active)"}, {"measurement": "AC50", "setting": "[11]", "result": "38 µM (active)"}, {"measurement": "EC50", "setting": "[12]", "result": "14.8 µM (active)"}]}
{"smiles": "COc1cccc(Oc2c[nH]nc2-c2ccc(O)cc2O)c1", "values": [{"measurement": "IC50", "setting": "[13]", "result": "39.4 µM (active)"}, {"measurement": "IC50", "setting": "[14]", "result": "> 35 µM (not active)"}]}
{"smiles": "CCC(C)NC(=O)c1cc(-c2ccc(C)cc2)on1", "note": "(stereo not drawn)", "values": [{"measurement": "EC50", "setting": "[15]", "result": "> 10 µM (not active)"}, {"measurement": "EC50", "setting": "[16]", "result": "> 50 µM (not active)"}, {"measurement": "EC50", "setting": "[17]", "result": "> 50 µM (not active)"}]}
{"smiles": "CCCN(CC1CC1)c1nc(N)c2c(N)nc(OC)cc2c1C#N", "values": [{"measurement": "IC50", "setting": "[18]", "result": "> 20 µM (inactive)"}, {"measurement": "IC50", "setting": "[19]", "result": "9.67 µM (active)"}, {"measurement": "IC50", "setting": "[20]", "result": "> 67 µM (not active)"}]}
{"smiles": "O=[N+]([O-])c1ccccc1OCCNCc1ccccc1", "values": [{"measurement": "IC50", "setting": "[13]", "result": "153 µM (active)"}, {"measurement": "EC50", "setting": "[21]", "result": "4.78 µM (active)"}]}
{"smiles": "Cc1cc(C)nc(Nc2ncc(O)n2-c2ccccc2)n1", "values": [{"measurement": "AC50", "setting": "Cytochrome P450 2D6", "result": "inconclusive"}, {"measurement": "EC50", "setting": "[22]", "result": "9.35 µM (active)"}, {"measurement": "AC50", "setting": "Cytochrome P450 3A4", "result": "inconclusive"}]}
{"smiles": "CC(=O)Nc1ccc(/C=N/Nc2ccccc2)cc1", "values": [{"measurement": "IC50", "setting": "NADPH oxidase 1 [23]", "result": "6.22 µM (active)"}]}
{"smiles": "CCOC(=O)c1c(C)nc(-c2ccccc2)nc1NC(=O)CC", "values": [{"measurement": "EC50", "setting": "[24]", "result": "> 50 µM (not active)"}]}
